According to PMC3677530 (Analytical biochemistry, 2013):
Several values for one entry are separate records, joined by “and”; a condition that tells them apart may be missing. Equal values may be shown once. Read-outs that look alike come from different tables or passages of the source.

What was measured:
[1] = target: human cannabinoid CB2 receptor (Homo sapiens, UniProt P34972); test: cell-based; conditions: for inhibition of internalization (CB2): 2 nM [3H]-CP55,940, CHO-CB2
[2] = target: human cannabinoid CB1 receptor (Homo sapiens, UniProt P21554); test: cell-based; assay type: cell-based; conditions: for CB2/CB1: ratio of the IC50 values CB2/CB1, plate-based assay
CB2 receptor = conditions: ref Tam et al [25]; cited from earlier work

Chain of human cannabinoid CB1 receptor (P21554 whole entry): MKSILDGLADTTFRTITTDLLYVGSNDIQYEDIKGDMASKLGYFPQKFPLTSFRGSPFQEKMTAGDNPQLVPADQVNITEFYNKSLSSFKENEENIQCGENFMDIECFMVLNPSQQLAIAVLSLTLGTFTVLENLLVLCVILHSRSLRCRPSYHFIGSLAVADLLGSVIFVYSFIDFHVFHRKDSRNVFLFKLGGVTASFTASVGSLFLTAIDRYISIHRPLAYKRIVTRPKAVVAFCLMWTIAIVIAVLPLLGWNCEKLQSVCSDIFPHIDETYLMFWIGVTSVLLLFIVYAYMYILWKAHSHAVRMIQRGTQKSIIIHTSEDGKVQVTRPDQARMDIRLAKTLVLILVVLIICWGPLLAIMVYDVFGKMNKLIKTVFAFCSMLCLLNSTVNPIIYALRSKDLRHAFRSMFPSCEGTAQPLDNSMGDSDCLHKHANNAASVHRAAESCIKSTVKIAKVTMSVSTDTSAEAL
Chain of human cannabinoid CB2 receptor (P34972 whole entry): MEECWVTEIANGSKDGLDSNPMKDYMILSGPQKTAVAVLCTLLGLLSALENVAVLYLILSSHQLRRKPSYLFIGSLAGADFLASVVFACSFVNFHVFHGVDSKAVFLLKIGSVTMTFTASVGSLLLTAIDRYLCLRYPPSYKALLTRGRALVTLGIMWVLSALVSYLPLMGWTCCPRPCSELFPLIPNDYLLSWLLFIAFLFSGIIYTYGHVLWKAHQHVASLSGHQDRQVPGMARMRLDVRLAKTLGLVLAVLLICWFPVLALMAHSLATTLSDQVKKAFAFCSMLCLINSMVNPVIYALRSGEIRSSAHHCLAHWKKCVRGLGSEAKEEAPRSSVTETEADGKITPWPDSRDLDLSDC

CCCCCn1cc(C(=O)C23CC4CC(CC(C4)C2)C3)c2ccccc21 [AB001, 3-[(adamantan-1-yl)carbonyl]-1-pentylindole]
inhibition of internalization (CB2) [1]: 30.3%
IC50 [2]: 29.5 ± 2.23 nM
inhibition of internalization (CB1) [2]: 32.6%
CB2/CB1 [2]: 58

Cc1c(C(=O)NN2CCCCC2)nn(-c2ccc(Cl)cc2Cl)c1-c1ccc(I)cc1 [AM251]
inhibition of internalization (CB2) [1]: 60.5%

Cc1c(C(=O)NN2CCOCC2)nn(-c2ccc(Cl)cc2Cl)c1-c1ccc(I)cc1 [AM281]
inhibition of internalization (CB2) [1]: 44.2%
IC50 ([2]; read-out: CB1 (IC50 ±SD)): 9.91 ± 0.99 nM

COc1ccc(C(=O)c2c(C)n(CCN3CCOCC3)c3cc(I)ccc23)cc1 [AM630]
inhibition of internalization (CB2) [1]: 51.4%

Cc1c(C(=O)NN2CCS(=O)(=O)CC2)nn(-c2ccc(Cl)cc2Cl)c1-c1ccc(C#CCCC#N)cc1 [AM6545]
inhibition of internalization (CB2) [1]: 50.7%
inhibition of internalization (CB1) [2]: 43.7%
CB2/CB1 [2]: 309
IC50 ([2]; read-out: CB1 (IC50 ±SD)): 4.2 ± 0.24 nM

C[C@@]12CC[C@@H]3[C@@](CC[C@H]4[C@@]3(C)CCC[C@@]4(C)C(=O)O)(CC1=O)C2 [Isosteviol]
IC50 [1]: 0.9 nM and 0.89 nM
inhibition of internalization (CB2) [1]: 56.8%
selectivity for CB2 (over CB1) ([1]; plate-based assay): ~ 40 times
IC50 [2]: 37.5 ± 6.9 nM
inhibition of internalization (CB1) ([2]; 10 nM [3H]-Win 55,212-2, CHO-CB1): 71.1%
CB2/CB1 [2]: 0.02

CC(C)[C@H](N=C(NS(=O)(=O)c1ccc(Cl)cc1)N1C[C@H](c2ccccc2)C(c2ccc(Cl)cc2)=N1)C(N)=O [JD5037-030]
binding affinity for CB2 (CB2 receptor): 245 nM
inhibition of internalization (CB2) [1]: 52.1%
inhibition of internalization (CB1) [2]: 64.4%
CB2/CB1 [2]: 810
IC50 ([2]; read-out: CB1 (IC50 ±SD)): 0.2 ± 0.05 nM

Cc1c(C(=O)NN2CCCCC2)nn(-c2ccc(Cl)cc2Cl)c1-c1ccc(Cl)cc1 [Rimonabant]
inhibition of internalization (CB2) [1]: 37.7%

CCCCCn1cc(C(=O)C2C(C)(C)C2(C)C)c2ccccc21 [UR144]
inhibition of internalization (CB2) [1]: 38.1%
inhibition of internalization (CB1) [2]: 29.6%
selectivity for CB1 (over CB2) ([2]; plate-based assay): did not observe any selectivity
CB2/CB1 [2]: 3
IC50 ([2]; read-out: CB1 (IC50 ±SD)): 27.2 ± 6.6 nM
